The source of these data is patent US12441777B2 (NXERA PHARMA UK LIMITED, priority 2018, dated 2025).

The target of one experiment is T1, Mouse GLP-1R (Mus musculus, UniProt O35659).
T1 construct: expressed in transfected cells
T1 sequence (O35659 22-463): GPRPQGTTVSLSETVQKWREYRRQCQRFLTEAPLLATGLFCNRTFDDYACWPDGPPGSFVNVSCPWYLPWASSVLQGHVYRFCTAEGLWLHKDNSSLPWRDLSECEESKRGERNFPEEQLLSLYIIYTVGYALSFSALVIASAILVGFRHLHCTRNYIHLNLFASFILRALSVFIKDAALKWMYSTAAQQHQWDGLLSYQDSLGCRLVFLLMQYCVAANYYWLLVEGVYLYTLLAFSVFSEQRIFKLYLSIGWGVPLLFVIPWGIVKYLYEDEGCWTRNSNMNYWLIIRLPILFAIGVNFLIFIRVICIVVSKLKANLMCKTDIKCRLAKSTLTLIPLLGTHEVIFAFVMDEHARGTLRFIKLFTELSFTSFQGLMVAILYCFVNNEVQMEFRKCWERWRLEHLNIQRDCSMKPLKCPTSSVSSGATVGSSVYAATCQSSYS
Description: Functional antagonism of mouse GLP1 receptors, cAMP accumulation assay (HitHunter, CHO-K1 cells stably expressing mouse GLP-1R, Exendin-4 at EC80). In kind it is cell-based. The note with it: functional pKb from IC50 corrected by Cheng-Prusoff adaptation. From the text: Final DMSO concentration in the assay was 1%. […] Calculated IC50 values were corrected for the agonist concentration using an adaptation of the Cheng-Prusoff equation to generate functional pKb values: […]
On the technique in general: cAMP levels reflect the balance of adenylyl cyclase and phosphodiesterase activity.

A further experiment has as its target T2, Human GLP-1R (Homo sapiens, UniProt P43220).
T2 construct: expressed in transfected cells; host or cells: HEK cells infected with GLP-1R BacMam
Description: Functional antagonism of human GLP1 receptors, cAMP accumulation assay (HiRange cAMP kit, HEK cells infected with GLP-1R Bacmam, GLP-1(7-36) amide at EC80). It counts as cell-based. The note with it: functional pKb from IC50 corrected by Cheng-Prusoff adaptation, GLP-1(7-36) at EC80. How it is done: The method followed a two-step protocol provided in the kit. In brief, HEK cells infected with 1% v/v GLP-1R Bacmam for 24 h were harvested using cell dissociation solution (Gibco), centrifuged and resuspended in the assay buffer (HBSS (Lonza) supplemented with 0.5 mM IBMX (Tocris)). DMSO stock of test compounds were serially diluted in the assay buffer and added to 96-well half area white plates (Costar). Final DMSO concentration in the assay was 0.3%. 20K cells per well were added to plates followed by 30 min incubation (humidified air (5% CO2), 37° C.). […] Intracellular accumulation of cAMP was stopped by addition of the HTRF detection reagents in lysis buffer, provided in the kit. Following 1-hour incubation at RT, plates were read on Pherastar FS (BMG Labtech, Inc.) Dotmatics Studies software was used for fitting data to a four-parameter concentration response curve. Calculated IC50 values were corrected for the agonist concentration using an adaptation of the Cheng-Prusoff equation to generate functional pKb values: […]

T2 sequence (P43220 24-463): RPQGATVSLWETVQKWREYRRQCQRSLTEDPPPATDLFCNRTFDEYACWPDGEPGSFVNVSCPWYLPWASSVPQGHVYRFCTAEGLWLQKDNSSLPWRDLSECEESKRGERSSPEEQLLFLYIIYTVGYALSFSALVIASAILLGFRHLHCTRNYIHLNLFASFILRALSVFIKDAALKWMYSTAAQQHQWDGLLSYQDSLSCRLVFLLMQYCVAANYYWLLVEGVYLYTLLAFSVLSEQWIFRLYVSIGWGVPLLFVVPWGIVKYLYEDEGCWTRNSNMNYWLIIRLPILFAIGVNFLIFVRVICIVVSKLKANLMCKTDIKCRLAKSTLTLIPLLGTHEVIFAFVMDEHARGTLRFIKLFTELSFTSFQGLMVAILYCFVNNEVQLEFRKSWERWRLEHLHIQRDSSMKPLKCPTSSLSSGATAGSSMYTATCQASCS

exendin(9-39)amide [Ex 9-39]: the “Mouse GLP-1R antagonist cAMP fpKb” value at Mouse GLP-1R is given as 7.2. Moreover, the “Human GLP-1R antagonist cAMP fpKb” value on Human GLP-1R turned out to be 7.8.
